For test [1], the target named is T1, glutathione S-transferase (GST)-fused full-length human Syk protein (Homo sapiens, UniProt P43405).
T1 construct: (GST)-fused full-length human Syk protein; GST (glutathione S-transferase); purchased Carna Biosciences
Briefly: Syk enzyme assay. Conditions: Syk enzyme assay, Test Example 1; read-out: IC50 of Syk-inhibitory activity. Format: biochemical. The gist of the method: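 Baculovirus-expressed enzyme (1.2 ng) was preincubated with compound in HEPES pH 7.0/MgCl2/DTT buffer, 2 min shaking then 13 min at room temperature. Biotin-EDPDYEWPSA-NH2 (0.4 μM final) and ATP (27 μM final) were added for 40 min at room temperature. EDTA stop, streptavidin-XL/PT66-K TR-FRET at 615/665 nm gave IC50.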

The test system of test [2] is THP-1 cells. Briefly: TNFα generation assay. The class given is cell-based, human. The settings on record: Table 22, read-out: IC50 in TNFα generation assay. The gist of the method:
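THP-1 cells differentiated to macrophage-like cells with 10 ng/ml IFN-γ for 2 days, preincubated with compound 30 min at room temperature, then cultured 7 h on plates coated with human IgG (10 μg/ml). Secreted TNFα measured by ELISA or AlphaLISA.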

The mark [3] stands for this setting: Homo sapiens, THP-1, THP-1 cells.

The results in this text go back to US8895585B2, “Nicotinamide derivative or salt thereof” (FUJIFILM Corporation, priority 2010, dated 2014).

Molecules are shown by their SMILES. Like-named read-outs stand apart in the source and are kept apart here.

With `NC(=O)c1cc(F)c(N[C@@H]2CCCC[C@@H]2N)nc1Nc1ccnc(-n2ccnn2)c1` (relative stereo) [Example 006-126, 2-((2-(1H-1,2,3-triazol-1-yl)pyridin-4-yl)amino)-6-((cis-2-aminocyclohexyl)amino)-5-fluoronicotinamide], the IC50 in test [1] was < 10 nM; in test [2] (setting [3]), < 65 nM.

As to `Cc1nn(CC(F)F)c2ccc(Nc3nc(N[C@H](C4CC4)[C@H](C)N)c(F)cc3C(N)=O)cc12` [Example 006-584, 6-(((1R,2S)-2-amino-1-cyclopropylpropyl)amino)-2-((1-(2,2-difluoroethyl)-3-methyl-1H-indazol-5-yl)amino)-5-fluoronicotinamide], the IC50 was < 10 nM in test [1] and 65 to 130 nM in test [2] (setting [3]).

In the case of `C[C@H](N)[C@@H](CC1CC1)Nc1nc(Nc2ccc3c(c2)c(C2CC2)nn3C)c(C(N)=O)cc1F` [Example 006-545, 6-(((2R,3S)-3-amino-1-cyclopropylbutan-2-yl)amino)-2-((3-cyclopropyl-1-methyl-1H-indazol-5-yl)amino)-5-fluoronicotinamide], the IC50 in test [1] was < 10 nM; in test [2] (setting [3]), 65 to 130 nM.

For the molecule `CCC[C@@H](Nc1nc(Nc2cncc(-c3ccccc3)c2)c(C(N)=O)cc1F)[C@H](C)N` [Example 006-247, 6-(((2S,3R)-2-aminohexan-3-yl)amino)-5-fluoro-2-((5-phenylpyridin-3-yl)amino)nicotinamide], the IC50 in test [1] is < 10 nM; in test [2] (setting [3]), 130 to 200 nM.

`COc1ccc(F)c(-c2cc(Nc3nc(NC4CCCCC4N)c(F)cc3C(N)=O)ccn2)c1` (stereo not shown) [Example 002-141]: the results for the IC50 in test [1] and in test [2] (setting [3]) were < 10 nM and 65 to 130 nM, respectively.

As for `CCC[C@@H](Nc1nc(Nc2ccnc(-c3ccc(OC)cc3F)c2)c(C(N)=O)cc1F)[C@H](C)N` [Example 006-336, 6-(((2S,3R)-2-aminohexan-3-yl)amino)-5-fluoro-2-((2-(2-fluoro-4-methoxyphenyl)pyridin-4-yl)amino)nicotinamide], the IC50 is < 10 nM in test [1] and 130 to 200 nM in test [2] (setting [3]).

For `C[C@H](N)[C@@H](CC1CC1)Nc1nc(Nc2ccc3c(cnn3C)c2)c(C(N)=O)cc1F` [Example 006-345, 6-(((2R,3S)-3-amino-1-cyclopropylbutan-2-yl)amino)-5-fluoro-2-((1-methyl-1H-indazol-5-yl)amino)nicotinamide], the IC50 is < 10 nM in test [1] and 65 to 130 nM in test [2] (setting [3]).

For the molecule `CNc1ccc(-c2cncc(Nc3nc(N[C@@H]4CCCC[C@@H]4N)c(F)cc3C(N)=O)c2)cc1` (relative stereo) [Example 004-220, 6-(cis-2-aminocyclohexylamino)-5-fluoro-2-((5-(4-(methylamino)phenyl)pyridin-3-yl)amino)nicotinamide], the IC50 in test [1] is < 10 nM; in test [2] (setting [3]), 65 to 130 nM.

Take `CCn1nc(C)c2cc(Nc3nc(N[C@H](CC(C)C)[C@H](C)N)c(F)cc3C(N)=O)ccc21` [Example 006-521, 6-(((2S,3R)-2-amino-5-methylhexan-3-yl)amino)-2-((1-ethyl-3-methyl-1H-indazol-5-yl)amino)-5-fluoronicotinamide]: the IC50 is < 10 nM in test [1] and 65 to 130 nM in test [2] (setting [3]).

For `NC(=O)c1cc(F)c(NC2CCCCC2N)nc1Nc1ccc2nn(Cc3ccccc3)cc2c1` (stereo not shown) [Example 002-037], the IC50 in test [1] is < 10 nM; in test [2] (setting [3]), 130 to 200 nM.

With `CC(C)C[C@@H](Nc1nc(Nc2ccc3c(c2)c(F)nn3C)c(C(N)=O)cc1F)[C@H](C)N` [Example 006-511, 6-(((2S,3R)-2-amino-5-methylhexan-3-yl)amino)-5-fluoro-2-((3-fluoro-1-methyl-1H-indazol-5-yl)amino)nicotinamide], the figures for the IC50 in test [1] and in test [2] (setting [3]) were < 10 nM and < 65 nM, respectively.

With `NC(=O)c1cc(F)c(NC2CCCCC2N)nc1Nc1cncc(NC(=O)c2ccco2)c1` (stereo not shown) [Example 027-033], the IC50 in test [1] was < 10 nM; in test [2] (setting [3]), 130 to 200 nM.

For the molecule `CCn1ncc2cc(Nc3nc(N[C@H](C)[C@H](C)N)c(F)cc3C(N)=O)ccc21` (racemic) [Example 006-184, 6-(((2R,3S)-3-aminobutan-2-yl)amino)-2-((1-ethyl-1H-indazol-5-yl)amino)-5-fluoronicotinamide 6-(((2S,3R)-3-aminobutan-2-yl)amino)-2-((1-ethyl-1H-indazol-5-yl)amino)-5-fluoronicotinamide], the figures for the IC50 in test [1] and in test [2] (setting [3]) were < 10 nM and 65 to 130 nM, respectively.

`CC(C)[C@H](CN)Nc1nc(Nc2ccc3ncccc3c2)c(C(N)=O)cc1F` [Example 006-160, (R)-6-((1-amino-3-methylbutan-2-yl)amino)-5-fluoro-2-(quinolin-6-ylamino)nicotinamide]: the figures for the IC50 in test [1] and in test [2] (setting [3]) were < 10 nM and 65 to 130 nM, respectively.

Take `COc1cccc(-c2cncc(Nc3nc(N[C@@H](CN)CC(C)C)c(F)cc3C(N)=O)c2)c1F` [Example 006-318, (R)-6-((1-amino-4-methylpentan-2-yl)amino)-5-fluoro-2-((5-(2-fluoro-3-methoxyphenyl)pyridin-3-yl)amino)nicotinamide]: the IC50 fell in the range of 10 to 50 nM in test [1] and 130 to 200 nM in test [2] (setting [3]).

With `CCCC[C@@H](Nc1nc(Nc2ccc3c(cnn3CC)c2)c(C(N)=O)cc1F)[C@H](C)N` [Example 006-388, 6-(((2S,3R)-2-aminoheptane-3-yl)amino)-2-((1-ethyl-1H-indazol-5-yl)amino)-5-fluoronicotinamide], the values for the IC50 in test [1] and in test [2] (setting [3]) were < 10 nM and 65 to 130 nM, respectively.

`CC[C@@H](Nc1nc(Nc2ccnc(-c3cc(OC)ccc3F)c2)c(C(N)=O)cc1F)[C@H](C)N` [Example 006-315, 6-(((2S,3R)-2-aminopentan-3-yl)amino)-5-fluoro-2-((2-(2-fluoro-5-methoxyphenyl)pyridin-4-yl)amino)nicotinamide]: the IC50 was < 10 nM in test [1] and < 65 nM in test [2] (setting [3]).

As to `NC(=O)c1cc(F)c(N[C@@H]2CCCC[C@@H]2N)nc1Nc1ccc2ncncc2c1` (relative stereo) [Example 006-062, 6-(cis-2-aminocyclohexylamino)-5-fluoro-2-(quinazolin-6-ylamino)nicotinamide], the IC50 in test [1] was < 10 nM; in test [2] (setting [3]), < 65 nM.

`CCNc1cc(Nc2nc(NC3CCCCC3N)c(F)cc2C(N)=O)ccn1` (stereo not shown) [Example 002-059]: the results for the IC50 in test [1] and in test [2] (setting [3]) were 10 to 50 nM and 130 to 200 nM, respectively.

As to `NC(=O)c1cc(F)c(N[C@@H]2CCCC[C@@H]2N)nc1Nc1ccccc1` (relative stereo) [Example 004-129, 6-(cis-2-aminocyclohexylamino)-5-fluoro-2-(phenylamino)nicotinamide], the IC50 in test [1] is < 10 nM; in test [2] (setting [3]) it was 65 to 130 nM.

In the case of `COCCn1ncc2cc(Nc3nc(N[C@@H]4CCCC[C@@H]4N)c(F)cc3C(N)=O)ccc21` (relative stereo) [Example 004-091, 6-(cis-2-aminocyclohexylamino)-5-fluoro-2-((1-(2-methoxyethyl)-1H-indazol-5-yl)amino)-nicotinamide], the figures for the IC50 in test [1] and in test [2] (setting [3]) were < 10 nM and 65 to 130 nM, respectively.

As for `CCC[C@@H](Nc1nc(Nc2ccnc(OC)c2)c(C(N)=O)cc1F)[C@@H](N)CC` [Example 006-404, 6-(((3S,4R)-3-aminoheptan-4-yl)amino)-5-fluoro-2-((2-methoxypyridin-4-yl)amino)nicotinamide], the IC50 in test [1] was < 10 nM; in test [2] (setting [3]), 130 to 200 nM.

Take `Cc1nn(CC(F)F)c2ccc(Nc3nc(N[C@H](CC(C)C)[C@H](C)N)c(F)cc3C(N)=O)cc12` [Example 006-522, 6-(((2S,3R)-2-amino-5-methylhexan-3-yl)amino)-2-((1-(2,2-difluoroethyl)-3-methyl-1H-indazol-5-yl)amino)-5-fluoronicotinamide]: the IC50 was < 10 nM in test [1] and < 65 nM in test [2] (setting [3]).

Take `NC(=O)c1cc(F)c(NC[C@@H](N)c2ccccn2)nc1Nc1ccc2ncccc2c1` [Example 014-017, (R)-6-((2-amino-2-(pyridin-2-yl)ethyl)amino)-5-fluoro-2-((quinolin-6-yl)amino)nicotinamide]: the IC50 in test [1] is < 10 nM; in test [2] (setting [3]) it was 130 to 200 nM.

Turning to `NC(=O)c1cc(F)c(N[C@@H]2CCCC[C@@H]2N)nc1Nc1ccnc(-n2nccn2)c1` [Example 006-146, 2-((2-(2H-1,2,3-triazol-2-yl)pyridin-4-yl)amino)-6-(((1R,2S)-2-aminocyclohexyl)amino)-5-fluoronicotinamide], the IC50 in test [1] is < 10 nM; in test [2] (THP-1 cells), < 65 nM.

`Cn1cc2cc(Nc3nc(NC4CCCCC4N)c(F)cc3C(N)=O)ccc2n1` (stereo not shown) [Example 002-041]: the IC50 in test [1] is < 10 nM; in test [2] (setting [3]), 65 to 130 nM.

Regarding `CC(C)C[C@H](CN)Nc1nc(Nc2cncc(-n3nccn3)c2)c(C(N)=O)cc1F` [Example 004-195, (R)-2-((5-(2H-1,2,3-triazol-2-yl)pyridin-3-yl)amino)-6-((1-amino-4-methylpentan-2-yl)amino)-5-fluoronicotinamide], the IC50 was < 10 nM in test [1] and 65 to 130 nM in test [2] (setting [3]).

As to `NC(=O)c1cc(F)c(N[C@@H]2CCCC[C@@H]2N)nc1Nc1cncc(-c2ccno2)c1` (relative stereo) [Example 004-141, 6-(cis-2-aminocyclohexylamino)-5-fluoro-2-((5-(isoxazol-5-yl)pyridin-3-yl)amino)-nicotinamide], the IC50 in test [1] is < 10 nM; in test [2] (setting [3]), 65 to 130 nM.

Turning to `C[C@H](N)[C@@H](CC1CC1)Nc1nc(Nc2ccc3scnc3c2)c(C(N)=O)cc1F` [Example 006-348, 6-(((2R,3S)-3-amino-1-cyclopropylbutan-2-yl)amino)-2-(benzo[d]thiazol-5-ylamino)-5-fluoronicotinamide], the IC50 was 10 to 50 nM in test [1] and 65 to 130 nM in test [2] (setting [3]).
